The values below come from patent US11365188B2, “JAK inhibitors” (priority 2018, dated 2022).

Where only a bound is given, the exact number is not on record here.

The target of the test is JAK1 (Homo sapiens, UniProt P23458). As to the kind of experiment: JAK Kinase Assay (JAK1, Caliper EZ Reader, fluoresceinated peptide). In kind it is biochemical. Conditions: ATP 76.5 μM; JAK1 10 nM; 120 minutes at room temperature; read-out: JAK1 inhibition. How it is done: JAK Kinase Assay 384-well plates in the left foot butoxy measured progress. The final assay volume was 25 μL, 250 nL 100× compounds, 10 μL enzyme mix and 15 μL substrate mix (fluoresceinated peptide and ATP) in assay buffer (20 mM HEPES (pH 7.5), 10 mM MgCl2, […], 0.5 mM EGTA and 2 mM DTT) prepared as test compound. By mixing the JAK1 with substrates and test compounds to start the reaction. There action mixture was incubated for 120 minutes at room temperature, then added 30 μL stop buffer for each sample to terminate the reaction with 50 mM EDTA. After termination of the kinase reaction, the proportion of phosphorylated product was determined as a fraction of total peptide substrate using Caliper EZ Reader II. Inhibition data were calculated by comparison with 100% of the reaction mixture without enzyme inhibition and vehicle-only reaction mixture billion % inhibition compared. The final concentration of reagents in the assays is: ATP, 76.5 μM; JAK1 fluorescent peptide (5-FAM-EEPLYWSFPAKKK-CONH2), 3 μM; JAK1, 10 nM, and DMSO, 1%. Dose response curve were generated to determine the concentration required for IC50 of JAK activity.
Chain of JAK1 (P23458 whole entry, species assumed): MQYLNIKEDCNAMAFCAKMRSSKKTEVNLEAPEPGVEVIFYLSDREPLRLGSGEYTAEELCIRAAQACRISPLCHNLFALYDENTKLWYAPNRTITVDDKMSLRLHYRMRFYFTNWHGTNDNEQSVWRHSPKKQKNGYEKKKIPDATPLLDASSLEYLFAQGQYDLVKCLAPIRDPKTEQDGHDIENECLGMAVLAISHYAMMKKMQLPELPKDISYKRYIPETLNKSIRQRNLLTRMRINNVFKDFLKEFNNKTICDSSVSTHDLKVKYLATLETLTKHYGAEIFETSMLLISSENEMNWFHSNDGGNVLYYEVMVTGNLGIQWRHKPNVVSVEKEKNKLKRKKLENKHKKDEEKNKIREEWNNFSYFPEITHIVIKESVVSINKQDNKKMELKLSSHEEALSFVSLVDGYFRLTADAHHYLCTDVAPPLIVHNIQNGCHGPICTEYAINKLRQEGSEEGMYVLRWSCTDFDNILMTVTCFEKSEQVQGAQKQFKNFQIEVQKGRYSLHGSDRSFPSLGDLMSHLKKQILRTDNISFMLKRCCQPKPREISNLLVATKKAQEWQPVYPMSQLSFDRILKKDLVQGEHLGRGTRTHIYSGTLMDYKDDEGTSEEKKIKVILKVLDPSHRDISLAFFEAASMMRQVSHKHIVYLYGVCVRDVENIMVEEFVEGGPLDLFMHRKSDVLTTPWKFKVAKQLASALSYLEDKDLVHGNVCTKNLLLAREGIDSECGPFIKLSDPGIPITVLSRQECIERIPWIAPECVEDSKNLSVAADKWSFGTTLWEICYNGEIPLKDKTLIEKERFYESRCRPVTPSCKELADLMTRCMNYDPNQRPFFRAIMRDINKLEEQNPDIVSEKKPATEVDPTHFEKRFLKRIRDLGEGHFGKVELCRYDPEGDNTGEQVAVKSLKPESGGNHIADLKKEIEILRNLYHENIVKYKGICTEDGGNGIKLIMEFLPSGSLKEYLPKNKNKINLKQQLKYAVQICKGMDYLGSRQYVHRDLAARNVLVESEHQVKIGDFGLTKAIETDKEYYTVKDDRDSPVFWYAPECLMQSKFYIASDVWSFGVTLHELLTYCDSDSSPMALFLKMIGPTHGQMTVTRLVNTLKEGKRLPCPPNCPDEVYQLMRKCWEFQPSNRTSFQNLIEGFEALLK
For the compound `CN(c1ncnc2[nH]ccc12)C1CC2(C1)CN(C(=O)c1cc(F)c(C#N)cc1F)C2` [Compound 51, 2,5-difluoro-4-(6-(methyl(7H-pyrrolo[2,3-d]pyrimidin-4-yl)amino)-2-azaspiro[3.3]heptane-2-carbonyl)benzonitrile], the IC50 lay in the range of 10 to 100 nM.

With `CN(c1ncnc2[nH]ccc12)C1CC2(C1)CN(C(=O)c1cc(F)c(C#N)c(F)c1)C2` [Compound 52, 2,6-difluoro-4-(6-(methyl(7H-pyrrolo[2,3-d]pyrimidin-4-yl)amino)-2-azaspiro[3.3]heptane-2-carbonyl)benzonitrile], the IC50 was 10 to 100 nM.

On to `Cc1cc(C(=O)N2CC3(CC(N(C)c4ncnc5[nH]ccc45)C3)C2)c(F)cc1C#N` [Compound 54, 5-fluoro-2-methyl-4-(6-(methyl(7H-pyrrolo[2,3-d]pyrimidin-4-yl)amino)-2-azaspiro[3.3]heptane-2-carbonyl)benzonitrile], for which the IC50 is 10 to 100 nM.

For the compound `CN(c1ncnc2[nH]ccc12)C1CC2(C1)CN(C(=O)c1cccc(F)c1F)C2` [Compound 55, (2,3-difluorophenyl)(6-(methyl(7H-pyrrolo[2,3-d]pyrimidin-4-yl)amino)-2-azaspiro[3.3]heptan-2-yl)methanone], the IC50 fell in the range of 10 to 100 nM.

`CN(c1ncnc2[nH]ccc12)C1CC2(C1)CN(C(=O)c1c(F)cc(C#N)cc1F)C2` [Compound 56, 3,5-difluoro-4-(6-(methyl(7H-pyrrolo[2,3-d]pyrimidin-4-yl)amino)-2-azaspiro[3.3]heptane-2-carbonyl)benzonitrile]: the IC50 was no more than 10 nM.

For `CN(c1ncnc2[nH]ccc12)C1CC2(C1)CN(C(=O)c1ccc(F)c(C#N)c1)C2` [Compound 57, 2-Fluoro-5-{6-[methyl-(7H-pyrrolo[2,3-d]pyrimidin-4-yl)-amino]-2-aza-spiro[3.3]heptane-2-carbonyl}-benzonitrile], the IC50 was no more than 10 nM.

As for `CN(c1ncnc2[nH]ccc12)C1CC2(C1)CN(C(=O)c1cc(F)cc(C#N)c1)C2` [Compound 58, 3-Fluoro-5-{6-[methyl-(7H-pyrrolo[2,3-d]pyrimidin-4-yl)-amino]-2-aza-spiro[3.3]heptane-2-carbonyl}-benzonitrile], the IC50 was no more than 10 nM.

As for `CN(c1ncnc2[nH]ccc12)C1CC2(C1)CN(C(=O)c1ccc(C#N)c(Cl)c1Cl)C2` [Compound 60, 2,3-Dichloro-4-{6-[methyl-(7H-pyrrolo[2,3-d]pyrimidin-4-yl)-amino]-2-aza-spiro[3.3]heptane-2-carbonyl}-benzonitrile], the IC50 was no more than 10 nM.

For `CN(c1ncnc2[nH]ccc12)C1CC2(C1)CN(C(=O)c1ccc(F)c(C#N)c1F)C2` [Compound 61, 2,6-Difluoro-3-{6-[methyl-(7H-pyrrolo[2,3-d]pyrimidin-4-yl)-amino]-2-aza-spiro[3.3]heptane-2-carbonyl}-benzonitrile], the IC50 is no more than 10 nM.

For the compound `CN(c1ncnc2[nH]ccc12)C1CC2(C1)CN(C(=O)c1cc(F)c(F)c(C#N)c1)C2` [Compound 62, 2,3-Difluoro-5-{6-[methyl-(7H-pyrrolo[2,3-d]pyrimidin-4-yl)-amino]-2-aza-spiro[3.3]heptane-2-carbonyl}-benzonitrile], the IC50 lay in the range of 10 to 100 nM.

Consider `CN(c1ncnc2[nH]ccc12)C1CC2(C1)CN(C(=O)c1cc(C#N)cc(F)c1F)C2` [Compound 63, 3,4-Difluoro-5-{6-[methyl-(7H-pyrrolo[2,3-d]pyrimidin-4-yl)-amino]-2-aza-spiro[3.3]heptane-2-carbonyl}-benzonitrile], for which the IC50 was no more than 10 nM.

Take `[2H]C([2H])([2H])N(c1ncnc2[nH]ccc12)C1CC2(C1)CN(C(=O)c1ccc(C#C)c(F)c1)C2` [Compound 64, (4-Ethynyl-3-fluoro-phenyl)-{6-[(methyl-d3)-(7H-pyrrolo[2,3-d]pyrimidin-4-yl)-amino]-2-aza-spiro[3.3]hept-2-yl}-methanone]: the IC50 is no more than 10 nM.

As for `[2H]C([2H])([2H])N(c1ncnc2[nH]ccc12)C1CC2(C1)CN(C(=O)c1ccc(C#N)c(F)c1)C2` [Compound 65], the IC50 fell in the range of 10 to 100 nM.

For `[2H]C([2H])([2H])N(c1ncnc2[nH]ccc12)C1CC2(C1)CN(C(=O)c1ccc(C#CC)c(F)c1)C2` [Compound 66], the IC50 was no more than 10 nM.

Turning to `[2H]C([2H])([2H])N(c1ncnc2[nH]ccc12)C1CC2(C1)CN(C(=O)c1ccc(C#N)c(F)c1F)C2` [Compound 67, 2,3-Difluoro-4-{6-[(methyl-d3)-(7H-pyrrolo[2,3-d]pyrimidin-4-yl)-amino]-2-aza-spiro[3.3]heptane-2-carbonyl}-benzonitrile], the IC50 was no more than 10 nM.

Turning to `COc1nsc(NC(=O)N2CC3(CC(N(C)c4ncnc5[nH]ccc45)C3)C2)n1` [Compound 70, N-(3-methoxy-1,2,4-thiadiazol-5-yl)-6-(methyl(7H-pyrrolo[2,3-d]pyrimidin-4-yl)amino)-2-azaspiro[3.3]heptane-2-carboxamide], the IC50 was no more than 10 nM.

As to `CN(c1ncnc2[nH]ccc12)C1CC2(C1)CN(C(=O)c1ccc(S(N)(=O)=O)cc1)C2` [Compound 71, 4-(6-(methyl(7H-pyrrolo[2,3-d]pyrimidin-4-yl)amino)-2-azaspiro[3.3]heptane-2-carbonyl)benzenesulfonamide], the IC50 is no more than 10 nM.

In the case of `COCC(=O)N1CCC2(CCC(N(C)c3ncnc4[nH]ccc34)CC2)CC1` [Compound 72, 2-methoxy-1-(9-(methyl(7H-pyrrolo[2,3-d]pyrimidin-4-yl)amino)-3-azaspiro[5.5]undecan-3-yl)ethan-1-one], the IC50 fell in the range of 10 to 100 nM.

On to `COc1nsc(NC(=O)N2CCC3(CCC(N(C)c4ncnc5[nH]ccc45)CC3)CC2)n1` [Compound 74, N-(3-methoxy-1,2,4-thiadiazol-5-yl)-9-(methyl(7H-pyrrolo[2,3-d]pyrimidin-4-yl)amino)-3-azaspiro[5.5]undecane-3-carboxamide], for which the IC50 is no more than 10 nM.

On to `CN(c1ncnc2[nH]ccc12)C1CCC2(CC1)CCN(C(=O)OC(C)(C)C)CC2` [Compound 106, tert-butyl 9-(methyl(7H-pyrrolo[2,3-d]pyrimidin-4-yl)amino)-3-azaspiro[5.5]undecane-3-carboxylate], for which the IC50 lay in the range of 1000 to 10000 nM.

Take `CN(c1ncnc2[nH]ccc12)C1CCC2(CC1)CCN(C(=O)COc1ccccc1)CC2` [Compound 107, 1-(9-(methyl(7H-pyrrolo[2,3-d]pyrimidin-4-yl)amino)-3-azaspiro[5.5]undecan-3-yl)-2-phenoxyethan-1-one]: the IC50 is no more than 10 nM.

With `CN(c1ncnc2[nH]ccc12)C1CCC2(CC1)CCN(C(=O)OCC(F)(F)F)CC2` [Compound 108, 2,2,2-trifluoroethyl 9-(methyl(7H-pyrrolo[2,3-d]pyrimidin-4-yl)amino)-3-azaspiro[5.5]undecane-3-carboxylate], the IC50 lay within 100 to 1000 nM.

Consider `CN(c1ncnc2[nH]ccc12)C1CCC2(CC1)CCN(C(=O)NCC(F)(F)F)CC2` [Compound 109, 9-(methyl(7H-pyrrolo[2,3-d]pyrimidin-4-yl)amino)-N-(2,2,2-trifluoroethyl)-3-azaspiro[5.5]undecane-3-carboxamide], for which the IC50 fell in the range of 10 to 100 nM.

For the compound `CNC(=O)N1CCC2(CCC(N(C)c3ncnc4[nH]ccc34)CC2)CC1` [Compound 110, N-methyl-9-(methyl(7H-pyrrolo[2,3-d]pyrimidin-4-yl)amino)-3-azaspiro[5.5]undecane-3-carboxamide], the IC50 was 10 to 100 nM.
